Patent publication US9586963B2 (GENFIT, priority 2011, dated 2017)

Columns and labels:
[1] = biological target: T1, Rev-Erb alpha (Homo sapiens, UniProt P20393); test: M2H (mammalian two-hybrid) cellular activation assay of Rev-Erb alpha; assay type: cell-based; conditions: M2H assay, HEK293 cells; for EC50: Gal4-Rev-Erb alpha / VP16-NCoR, luciferase reporter; for Emax: relative to DMSO, at the tested dose, read-out: TOP activation
T1 sequence (P20393 284-614 limits assumed): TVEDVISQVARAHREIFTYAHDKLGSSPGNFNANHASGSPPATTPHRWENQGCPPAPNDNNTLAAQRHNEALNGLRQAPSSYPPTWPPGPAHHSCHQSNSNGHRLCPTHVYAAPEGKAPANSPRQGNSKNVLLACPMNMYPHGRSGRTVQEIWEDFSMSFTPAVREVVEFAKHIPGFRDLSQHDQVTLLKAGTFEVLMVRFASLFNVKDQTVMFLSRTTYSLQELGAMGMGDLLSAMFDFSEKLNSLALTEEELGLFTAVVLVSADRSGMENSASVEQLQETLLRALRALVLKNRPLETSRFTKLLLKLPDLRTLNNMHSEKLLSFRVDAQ
Method in brief: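 Six-point dose-response, 18 h, 37 °C, serum-free, in HEK293 cells carrying a Gal4-RE luciferase reporter with Gal4-Rev-Erb alpha or beta plus VP16-NCoR (corepressor interaction readout). EC50 and TOP activation (%) derived from luminescence across four experiments.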

| EC50 [1] [µM] | melting point [°C] | Emax [1] [%] | Structure (SMILES) |
| --- | --- | --- | --- |
| 0.1 to 1 | 173 |  | Clc1ccc(-c2ccccc2Oc2ccc3nnc(Cl)n3n2)cc1 [Cpd.4-117, 3-chloro-6-(4′-chlorobiphenyl-2-yloxy)-[1,2,4]triazolo[4,3-b]pyridazine] |
| 0.1 to 1 | 172 |  | Fc1ccc(Oc2ccc3nnc(Cl)n3n2)c(-c2ccc(Cl)cc2)c1 [Cpd.4-118, 3-chloro-6-(4′-chloro-5-fluorobiphenyl-2-yloxy)-[1,2,4]triazolo[4,3-b]pyridazine] |
| 1 to 6 | 248.2 |  | Nc1cccc(-c2cc(F)ccc2Oc2ccc3nnc(Cl)n3n2)c1 [Cpd.4-119, 3-chloro-6-(3′-amino-5-fluorobiphenyl-2-yloxy)-[1,2,4]triazolo[4,3-b]pyridazine] |
| 0.1 to 1 | 106.2 |  | Fc1cccc(-c2cc(F)ccc2Oc2ccc3nnc(Cl)n3n2)c1 [Cpd.4-120, 3-chloro-6-(3′,5-difluorobiphenyl-2-yloxy)-[1,2,4]triazolo[4,3-b]pyridazine] |
| 1 to 6 | 55 to 58 |  | FC(F)(F)c1ccc(CN2CCOCC2)c(Oc2ccc3nnc(Cl)n3n2)c1 [Cpd.4-122, 3-chloro-6-(2-(morpholinomethyl)-5-(trifluoromethyl)phenoxy)-[1,2,4]triazolo[4,3-b]pyridazine] |
| 1 to 6 | 69 to 70 |  | FC(F)(F)c1ccc(-c2cccnc2)c(Oc2ccc3nnc(C(F)(F)F)n3n2)c1 [Cpd.4-126, 3-(trifluoromethyl)-6-(2-(pyridin-3-yl)-5-(trifluoromethyl)phenoxy)-[1,2,4]triazolo[4,3-b]pyridazine] |
| 1 to 6 | 129 to 132 |  | COc1nccc(C)c1-c1ccc(C(F)(F)F)cc1Oc1ccc2nnc(Cl)n2n1 [Cpd.4-130, 3-chloro-6-((2-(2-methoxy-4-methylpyridin-3-yl))-5-(trifluoromethyl)phenoxy)-[1,2,4]triazolo[4,3-b]pyridazine] |
| 0.1 to 1 | 60 to 68 |  | COc1ncc(F)cc1-c1ccc(C(F)(F)F)cc1Oc1ccc2nnc(Cl)n2n1 [Cpd.4-131, 3-chloro-6-((2-(2-methoxy-5-fluoropyridin-3-yl))-5-(trifluoromethyl)phenoxy)-[1,2,4]triazolo[4,3-b]pyridazine] |
| 0.1 to 1 | 51 |  | Cc1cccc(-c2ccccc2Oc2ccc3nnc(Cl)n3n2)c1 [Cpd.4-132, 3-chloro-6-(3′-methylbiphenyl-2-yloxy)-[1,2,4]triazolo[4,3-b]pyridazine] |
| 0.1 to 1 | 94.5 to 95.1 |  | Cc1cccc(-c2cc(F)ccc2Oc2ccc3nnc(Cl)n3n2)c1 [Cpd.4-135, 3-chloro-6-(5-fluoro-3′-methylbiphenyl-2-yloxy)-[1,2,4]triazolo[4,3-b]pyridazine] |
| 0.1 to 1 | 102.5 |  | COc1cccc(-c2ccc(C(F)(F)F)cc2Oc2ccc3nnc(C(F)(F)F)n3n2)c1 [Cpd.4-137, 3-(trifluoromethyl)-6-(3′-methoxy-4-(trifluoromethyl)biphenyl-2-yloxy)-[1,2,4]triazolo[4,3-b]pyridazine] |
| 1 to 6 | 195 |  | Oc1cccc(-c2ccc(C(F)(F)F)cc2Oc2ccc3nnc(C(F)(F)F)n3n2)c1 [Cpd.4-138, 3-(trifluoromethyl)-6-(3′-hydroxy-4-(trifluoromethyl)biphenyl-2-yloxy)-[1,2,4]triazolo[4,3-b]pyridazine] |
| 0.1 to 1 | 89.7 to 90.8 |  | CCOc1ccc(Oc2ccc3nnc(Cl)n3n2)c(-c2ccccc2)c1 [Cpd.4-139, 3-chloro-6-(5-ethoxybiphenyl-2-yloxy)-[1,2,4]triazolo[4,3-b]pyridazine] |
| > 6 | 236 to 246 | > 130 | COC(=O)c1cccc(-c2ccccc2Oc2ccc3nnc(Cl)n3n2)c1 [Cpd.4-140, 3-Chloro-6-(3′-(methyloxycarbonyl)biphenyl-2-yloxy)-[1,2,4]triazolo[4,3-b]pyridazine] |
| 1 to 6 | 85.3 to 87.7 |  | Fc1ccc(Oc2ccc3nnc(C(F)(F)F)n3n2)c(-c2ccccc2)c1 [Cpd.4-141, 3-(trifluoromethyl)-6-(5-fluorobiphenyl-2-yloxy)-[1,2,4]triazolo[4,3-b]pyridazine] |
| 0.1 to 1 | 175 to 176 |  | COc1ccc(C(=O)c2ccccc2)c(Oc2ccc3nnc(Cl)n3n2)c1 [Cpd.4-144, 3-chloro-6-(2-benzoyl-5-methoxy-phenoxy)-[1,2,4]triazolo[4,3-b]pyridazine] |
| 1 to 6 | 135 to 137 |  | O=C(c1ccccc1)c1cc(Br)ccc1Oc1ccc2nnc(Cl)n2n1 [Cpd.4-145, 3-chloro-6-(4-bromo-2-benzoyl-phenoxy)-[1,2,4]triazolo[4,3-b]pyridazine] |
| 0.1 to 1 | 161 to 162 |  | Clc1ccc(Oc2ccc3nnc(Cl)n3n2)c(Cc2ccccc2)c1 [Cpd.4-146, 6-(2-benzyl-4-chloro-phenoxy)-3-chloro-[1,2,4]triazolo[4,3-b]pyridazine] |
| 1 to 6 | 94.5 to 96.1 |  | Fc1ccc(Oc2ccc3nnc(Cl)n3n2)c(-c2cccc(C(F)(F)F)c2)c1 [Cpd.4-148, 3-chloro-6-(5-fluoro-3′-(trifluoromethyl)biphenyl-2-yloxy)-[1,2,4]triazolo[4,3-b]pyridazine] |
| 1 to 6 | 73.7 to 76.9 |  | COc1cccc(-c2cc(F)ccc2Oc2ccc3nnc(C(F)(F)F)n3n2)c1 [Cpd.4-149, 3-(trifluoromethyl)-6-(5-fluoro-3′-methoxybiphenyl-2-yloxy)-[1,2,4]triazolo[4,3-b]pyridazine] |
| 1 to 6 | 52 to 55 |  | COc1cccc(-c2cc(F)c(F)cc2Oc2ccc3nnc(C(F)(F)F)n3n2)c1 [Cpd.4-150, 3-(trifluoromethyl)-6-(4,5-difluoro-3′-methoxybiphenyl-2-yloxy)-[1,2,4]triazolo[4,3-b]pyridazine] |
| 1 to 6 | 193 to 195 |  | Oc1cccc(-c2cc(F)c(F)cc2Oc2ccc3nnc(C(F)(F)F)n3n2)c1 [Cpd.4-151, 3-(trifluoromethyl)-6-(4,5-difluoro-3′-hydroxybiphenyl-2-yloxy)-[1,2,4]triazolo[4,3-b]pyridazine] |
| 1 to 6 | 102 |  | COc1cccc(-c2cc(F)c(F)cc2Oc2ccc3nnc(Cl)n3n2)c1 [Cpd.4-152, 3-chloro-6-(4,5-difluoro-3′-methoxybiphenyl-2-yloxy)-[1,2,4]triazolo[4,3-b]pyridazine] |
| 1 to 6 | 208 to 209 |  | N#Cc1ccc(Oc2ccc3nnc(Cl)n3n2)c(-c2ccccc2)c1 [Cpd.4-154, 3-chloro-6-(5-cyanobiphenyl-2-yloxy)-[1,2,4]triazolo[4,3-b]pyridazine] |
| > 6 | 70 to 70.4 | > 130 | Clc1nnc2ccc(Oc3ccc(CN4CCCCC4)cc3-c3ccccc3)nn12 [Cpd.4-156, 3-chloro-6-(5-piperidin-1-ylmethylbiphenyl-2-yloxy)-[1,2,4]triazolo[4,3-b]pyridazine] |
| 1 to 6 | 62.2 to 64.9 |  | Clc1nnc2ccc(Oc3ccc(CNC4CC4)cc3-c3ccccc3)nn12 [Cpd.4-161, 3-chloro-6-(5-(cyclopropylaminomethyl)biphenyl-2-yloxy)-[1,2,4]triazolo[4,3-b]pyridazine] |
